Measured values: PubChem BioAssay AID328 (DTP/NCI, 2004)
Where “and” joins values, the source holds several entries; their conditions need not be identical. Equal entries are not always repeated. Toxic doses and inconclusive results are not listed.

System: BDF1 mice, P388 leukemia ip, median survival T/C
Assay: NCI In Vivo Anticancer Drug Screen. Data for tumor model P388 Leukemia (intraperitoneal) in B6D2F1 (BDF1) mice
Conditions: endpoint: median survival time, higher = longer survival
Procedure, shortened: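 Transplantable tumour in mice; compound vs vehicle dosing; survival scored; ratio of treated to control reported.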

[1] = dose: 25.0 mg/kg/injection, schedule: Q01DX009 (ip), vehicle: saline
[2] = dose: 50.0 mg/kg/injection, schedule: Q01DX009 (ip), vehicle: saline
[3] = dose: 50.0 mg/kg/injection, schedule: Q04DX003 (ip), vehicle: saline
[4] = dose: 75.0 mg/kg/injection, schedule: Q04DX003 (ip), vehicle: saline
[5] = dose: 100.0 mg/kg/injection, schedule: Q04DX003 (ip), vehicle: saline
[6] = dose: 25.0 mg/kg/injection, schedule: Q04DX003 (ip), vehicle: saline
[7] = dose: 50.0 mg/kg/injection, schedule: Q01DX009 (ip), vehicle: saline with Tween-80
[8] = dose: 100.0 mg/kg/injection, schedule: Q01DX009 (ip), vehicle: saline with Tween-80
[9] = dose: 200.0 mg/kg/injection, schedule: Q01DX009 (ip), vehicle: saline with Tween-80
[10] = dose: 12.5 mg/kg/injection, schedule: Q01DX009 (ip), vehicle: saline with Tween-80
[11] = dose: 25.0 mg/kg/injection, schedule: Q01DX009 (ip), vehicle: saline with Tween-80

SMILES: CC(C)c1oc(=O)cc2c1[C@@H](O)[C@H]1OC(=O)[C@@]3(C)[C@@H](O)[C@H]4O[C@H]4[C@@]2(C)[C@@H]13
- T/C (dose: 15.0 mg/kg/injection, schedule: Q04DX003 (ip), vehicle: saline with Tween-80): 115 % of control
- T/C (dose: 30.0 mg/kg/injection, schedule: Q01DX001 (ip), vehicle: saline with Tween-80): 104 % of control
- T/C (dose: 30.0 mg/kg/injection, schedule: Q04DX003 (ip), vehicle: saline with Tween-80): 97 % of control

SMILES: CC[C@@]1(O)C[C@H](OC2CC(N(C)C)C(O)C(C)O2)c2c(cc3c(c2O)C(=O)c2c(O)ccc(O)c2C3=O)[C@H]1C(=O)OC (stereo partly specified)
- T/C (dose: 20.0 mg/kg/injection, schedule: Q04DX003 (ip), vehicle: other): 157 % of control

SMILES: [Cl][Hg][c]1ccc2ccccc2c1
- T/C (dose: 12.5 mg/kg/injection, schedule: Q01DX009 (ip), vehicle: gum acacia): 112 % of control

SMILES: CC[C@]1(O)C[C@H](OC2CC(N(C)C)C(OC3CC(O)C(O)C(C)O3)C(C)O2)c2c(cc3c(c2O)C(=O)c2c(O)ccc(O)c2C3=O)[C@H]1C(=O)OC (stereo partly specified)
- T/C (dose: 0.4 mg/kg/injection, schedule: Q01DX009 (ip), vehicle: Klucel (hydroxypropylcellulose) (HPC)): 171 % of control
- T/C (dose: 0.8 mg/kg/injection, schedule: Q01DX009 (ip), vehicle: Klucel (hydroxypropylcellulose) (HPC)): 158 % of control and 165 % of control
- T/C (dose: 1.6 mg/kg/injection, schedule: Q01DX009 (ip), vehicle: Klucel (hydroxypropylcellulose) (HPC)): 201 % of control and 222 % of control
- T/C (dose: 3.46 mg/kg/injection, schedule: Q04DX003 (ip), vehicle: other): 185 % of control
- T/C (dose: 5.76 mg/kg/injection, schedule: Q04DX003 (ip), vehicle: other): 217 % of control
- T/C (dose: 9.6 mg/kg/injection, schedule: Q04DX003 (ip), vehicle: other): 105 % of control

SMILES: CC1CN1P(=O)(N1CC1C)N1CC1C (stereo unspecified)
- T/C [1]: 100 % of control
- T/C (dose: 33.0 mg/kg/injection, schedule: Q04DX003 (ip), vehicle: saline): 222 % of control
- T/C [2]: 105 % of control
- T/C [3]: 177 % of control and 186 % of control
- T/C [4]: 250 % of control and 116 % of control
- T/C [5]: 236 % of control

SMILES: CS(=O)(=NC(=S)Nc1ccccc1)c1ccccc1 (stereo unspecified)
- T/C (dose: 75.0 mg/kg/injection, schedule: Q01DX001 (ip), vehicle: other): 115 % of control
- T/C (dose: 150.0 mg/kg/injection, schedule: Q01DX001 (ip), vehicle: other): 95 % of control
- T/C (dose: 300.0 mg/kg/injection, schedule: Q01DX001 (ip), vehicle: other): 100 % of control

SMILES: C=CCN(CC=C)CC=C
- T/C [6]: 111 % of control
- T/C [3]: 108 % of control
- T/C [5]: 111 % of control

SMILES: CC[C@@H](O)C[C@H]1CCC[C@@]2(C[C@@H]3OC(=O)/C=C/[C@@](C)(O)[C@@H](O)[C@H](C)[C@@H](O)[C@H](OC4CCC(N(C)C)C(C)O4)[C@@H](O)[C@](C)(O)CCCCC/C=C/[C@@H]4CC(C)(C)O[C@@]4(O)C[C@H](O2)[C@H]3C)O1 (stereo partly specified)
- T/C (dose: 0.04 mg/kg/injection, schedule: Q04DX003 (ip), vehicle: saline): 91 % of control
- T/C (dose: 0.06 mg/kg/injection, schedule: Q04DX003 (ip), vehicle: saline): 95 % of control
- T/C (dose: 0.1 mg/kg/injection, schedule: Q04DX003 (ip), vehicle: saline): 108 % of control
- T/C (dose: 7.5 micrograms/kg/injection, schedule: Q01DX009 (ip), vehicle: saline): 100 % of control
- T/C (dose: 7.5 micrograms/kg/injection, schedule: Q04DX003 (ip), vehicle: saline): 104 % of control
- T/C (dose: 15.0 micrograms/kg/injection, schedule: Q01DX009 (ip), vehicle: saline): 109 % of control
- T/C (dose: 15.0 micrograms/kg/injection, schedule: Q04DX003 (ip), vehicle: saline): 104 % of control
- T/C (dose: 30.0 micrograms/kg/injection, schedule: Q01DX009 (ip), vehicle: saline): 104 % of control
- T/C (dose: 30.0 micrograms/kg/injection, schedule: Q04DX003 (ip), vehicle: saline): 113 % of control

SMILES: COc1ccc(C2C(C#N)=C(N)NC(=O)C2C(N)=O)cc1 (stereo unspecified)
- T/C (dose: 50.0 mg/kg/injection, schedule: Q01DX005 (ip), vehicle: saline with Tween-80): 92 % of control
- T/C (dose: 100.0 mg/kg/injection, schedule: Q01DX005 (ip), vehicle: saline with Tween-80): 89 % of control
- T/C (dose: 200.0 mg/kg/injection, schedule: Q01DX005 (ip), vehicle: saline with Tween-80): 92 % of control

SMILES: C=CCN1c2ccccc2Sc2cnccc21
- T/C [7]: 109 % of control
- T/C [8]: 100 % of control and 104 % of control
- T/C [9]: 100 % of control

SMILES: C=CCc1ccccc1CNC(C)(C)CO
- T/C [7]: 103 % of control
- T/C [8]: 103 % of control

SMILES: COc1ccc(C2=C(c3ccccc3)C(c3ccccc3)=C(c3ccc(OC)cc3)C2=O)cc1
- T/C [7]: 103 % of control
- T/C [8]: 89 % of control
- T/C [9]: 99 % of control
- T/C (dose: 400.0 mg/kg/injection, schedule: Q01DX009 (ip), vehicle: saline with Tween-80): 94 % of control

SMILES: O=C(CC(O)(C(F)(F)F)C(F)(F)F)c1cccs1
- T/C (dose: 132.0 mg/kg/injection, schedule: Q04DX003 (ip), vehicle: saline with Tween-80): 105 % of control

SMILES: CN(C)c1ccc(N=C2C=CC(=O)C=C2)cc1
- T/C (dose: 3.13 mg/kg/injection, schedule: Q01DX009 (ip), vehicle: saline with Tween-80): 107 % of control
- T/C (dose: 6.25 mg/kg/injection, schedule: Q01DX009 (ip), vehicle: saline with Tween-80): 112 % of control and 117 % of control
- T/C [10]: 110 % of control and 117 % of control
- T/C [11]: 118 % of control

SMILES: COc1cc2cccccc-2cc1=O
- T/C (dose: 100.0 mg/kg/injection, schedule: Q04DX003 (ip), vehicle: Klucel (hydroxypropylcellulose) (HPC)): 110 % of control
- T/C (dose: 200.0 mg/kg/injection, schedule: Q04DX003 (ip), vehicle: Klucel (hydroxypropylcellulose) (HPC)): 115 % of control
- T/C (dose: 400.0 mg/kg/injection, schedule: Q04DX003 (ip), vehicle: Klucel (hydroxypropylcellulose) (HPC)): 115 % of control

SMILES: CCOC(=O)c1ccc(NCc2cccc([N+](=O)[O-])c2)cc1
- T/C (dose: 100.0 mg/kg/injection, schedule: Q01DX001 (ip), vehicle: Klucel (hydroxypropylcellulose) (HPC)): 115 % of control
- T/C (dose: 200.0 mg/kg/injection, schedule: Q01DX001 (ip), vehicle: Klucel (hydroxypropylcellulose) (HPC)): 100 % of control
- T/C (dose: 400.0 mg/kg/injection, schedule: Q01DX001 (ip), vehicle: Klucel (hydroxypropylcellulose) (HPC)): 93 % of control

SMILES: CC[C@H]1CN2CCc3cc(OC)c(OC)cc3[C@@H]2C[C@@H]1C[C@H]1NCCc2cc(O)c(OC)cc21
- T/C (dose: 0.25 mg/kg/injection, schedule: Q01DX010 (ip), vehicle: saline): 159 % of control
- T/C (dose: 0.5 mg/kg/injection, schedule: Q01DX010 (ip), vehicle: saline): 150 % of control
- T/C (dose: 2.0 mg/kg/injection, schedule: Q01DX010 (ip), vehicle: saline): 150 % of control and 190 % of control
- T/C (dose: 8.0 mg/kg/injection, schedule: Q01DX010 (ip), vehicle: saline): 95 % of control

SMILES: CCC/C(C)=N/Nc1ccccn1
- T/C (dose: 12.5 mg/kg/injection, schedule: Q01DX009 (ip), vehicle: Klucel (hydroxypropylcellulose) (HPC)): 105 % of control
- T/C [10]: 95 % of control
- T/C (dose: 25.0 mg/kg/injection, schedule: Q01DX009 (ip), vehicle: Klucel (hydroxypropylcellulose) (HPC)): 95 % of control and 110 % of control
- T/C [11]: 100 % of control
- T/C (dose: 50.0 mg/kg/injection, schedule: Q01DX009 (ip), vehicle: Klucel (hydroxypropylcellulose) (HPC)): 100 % of control and 120 % of control
- T/C [7]: 91 % of control and 118 % of control
- T/C [2]: 120 % of control

SMILES: COc1cc2c3c(c1)C(O)CC[N+]3(C)CCC2 (stereo unspecified)
- T/C (dose: 12.5 mg/kg/injection, schedule: Q01DX009 (ip), vehicle: saline): 100 % of control
- T/C (dose: 12.5 mg/kg/injection, schedule: Q04DX003 (ip), vehicle: saline): 109 % of control
- T/C [1]: 110 % of control
- T/C [6]: 109 % of control
- T/C [2]: 100 % of control
- T/C [3]: 109 % of control

SMILES: C[C@@H]1C[C@](O)([C@@H](C)Cl)C(=O)O[C@@H]2CCN3CC=C(COC(=O)[C@]1(C)O)[C@H]23
- T/C (dose: 30.0 mg/kg/injection, schedule: Q01DX010 (ip), vehicle: saline): 105 % of control

SMILES: NS(=O)(=O)c1ccc(Cl)cc1
- T/C [1]: 113 % of control
- T/C [2]: 109 % of control
- T/C [4]: 100 % of control
- T/C (dose: 100.0 mg/kg/injection, schedule: Q01DX009 (ip), vehicle: saline): 86 % of control
- T/C (dose: 150.0 mg/kg/injection, schedule: Q04DX003 (ip), vehicle: saline): 109 % of control
- T/C (dose: 300.0 mg/kg/injection, schedule: Q04DX003 (ip), vehicle: saline): 109 % of control

SMILES: CC1(C)N=C(N)N=C(N)N1c1cccc(OCCOc2ccc(NC(=O)CBr)cc2)c1
- T/C (dose: 50.0 mg/kg/injection, schedule: Q01DX009 (ip), vehicle: saline sonified): 116 % of control
- T/C (dose: 100.0 mg/kg/injection, schedule: Q01DX009 (ip), vehicle: saline sonified): 111 % of control
